Drawing on patent publication US8455475B2 (Gruenenthal GmbH, priority 2009, dated 2013), this text covers inhibition for 21 compounds.

For test [1], the target named is T1, human B1R (bradykinin receptor 1) (Homo sapiens, UniProt P46663).
T1 construct: expressed in transfected cells; host or cells: CHO K1 cells
T1 sequence (P46663 1-353): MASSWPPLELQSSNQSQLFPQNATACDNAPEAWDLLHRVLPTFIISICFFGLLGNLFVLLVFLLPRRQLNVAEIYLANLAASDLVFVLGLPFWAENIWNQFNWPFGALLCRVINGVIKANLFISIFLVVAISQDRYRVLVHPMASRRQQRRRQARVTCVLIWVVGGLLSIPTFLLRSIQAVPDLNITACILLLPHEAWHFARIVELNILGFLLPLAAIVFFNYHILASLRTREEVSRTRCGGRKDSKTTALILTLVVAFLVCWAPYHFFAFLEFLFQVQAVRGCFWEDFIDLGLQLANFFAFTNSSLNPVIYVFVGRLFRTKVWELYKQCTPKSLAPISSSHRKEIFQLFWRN
As to the kind of experiment: FLIPR Ca2+ assay (Fluo-4) on CHO K1 cells stably transfected with the human B1R gene (hB1R cells): % inhibition at 10 μM / IC50, agonist Lys-Des-Arg9-bradykinin. Format: cell-based. The following applies: CHO-K1, human B1R. A digest of the protocol: (§1)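 Loading with Fluo-4 occurs for 60 min at 37 °C, or alternatively in buffer A, before FLIPR measurement. Compounds are applied, incubated 10–20 min, and then the EC80 agonist is added. Antagonism appears as reduced peak Ca2+ signal relative to maximal inhibition.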

Test [2] concerns the target T2, rat B1R (bradykinin receptor 1) (Rattus norvegicus, UniProt P97583).
T2 construct: expressed in transfected cells; host or cells: CHO K1 cells
T2 sequence (P97583 1-337): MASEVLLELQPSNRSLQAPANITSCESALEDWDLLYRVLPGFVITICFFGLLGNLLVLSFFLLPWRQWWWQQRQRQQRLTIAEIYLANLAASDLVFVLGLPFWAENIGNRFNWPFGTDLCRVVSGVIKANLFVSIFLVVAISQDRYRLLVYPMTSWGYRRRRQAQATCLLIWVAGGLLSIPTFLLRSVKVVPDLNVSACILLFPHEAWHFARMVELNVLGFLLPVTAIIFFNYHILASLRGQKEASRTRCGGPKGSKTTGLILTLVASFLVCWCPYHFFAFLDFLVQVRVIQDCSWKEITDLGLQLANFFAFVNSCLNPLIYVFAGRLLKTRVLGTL
As to the kind of experiment: FLIPR Ca2+ assay (Fluo-4) on CHO K1 cells stably transfected with the B1R gene of the rat (rB1R cells): % inhibition at 10 μM / IC50, agonist Des-Arg9-bradykinin. The following applies: CHO-K1, rat B1R. Format: cell-based. A digest of the protocol:
as §1

Each structure is given as a SMILES string.

A word on the inhibition: it is the drop in the measured response relative to a control, in per cent. With `CN(C(=O)C(c1ccccc1)c1ccccc1Cl)C1CCc2ccc(C(=O)N3CCC4(CC3)CCN(c3ccncc3)CC4)cc21` (stereo not drawn) [Ind_CC-021, 2-(2-chlorophenyl)-N-methyl-2-phenyl-N-[6-(9-pyridin-4-yl-3,9-diazaspiro[5.5]undecane-3-carbonyl)-2,3-dihydro-1H-inden-1-yl]-acetamide], the inhibition at 10 µM in test [1] worked out at 94%; in test [2], 96%.

As to `Cc1cccc(C)c1C(=O)NC1CC(C)(C)c2ccc(C(=O)N3CCC4(CC3)CCN(c3ccncc3)CC4)cc21` (stereo not drawn) [IND_CC-309, N-[3,3-Dimethyl-6-(3-pyridin-4-yl-3,9-diazaspiro[5.5]undecane-9-carbonyl)-1,2-dihydro-inden-1-yl]-2,6-dimethyl-benzamide], the values for the inhibition at 10 µM in test [1] and in test [2] were 97% and 104%, respectively.

For the compound `O=C(Cc1ccccc1F)N[C@@H]1CCc2ccc(C(=O)N3CCC4(CCN(c5ccncc5)CC4)C3)cc21` [Example H-152, 2-(2-Fluorophenyl)-N-[(1R)-6-(8-pyridin-4-yl-3,8-diazaspiro[4.5]decane-3-carbonyl)-2,3-dihydro-1H-inden-1-yl]-acetamide], the inhibition at 10 µM came to 99% in test [1] and 101% in test [2].

As for `O=C(NC1CCc2ccc(C(=O)N3CCCC4(CC3)CCN(c3ccncc3)CC4)cc21)c1ccccc1Cl` (stereo not drawn) [Example H-138, 2-Chloro-N-[6-(3-pyridin-4-yl-3,10-diazaspiro[5.6]dodecane-10-carbonyl)-2,3-dihydro-1H-inden-1-yl]-benzamide], the inhibition at 10 µM in test [1] was determined as 100%; in test [2] it was 102%.

With `O=C(N[C@@H]1CCc2ccc(C(=O)N3CCCC4(CCN(c5ccncc5)CC4)C3)cc21)c1ccccc1Cl` [Example H-54, 2-Chloro-N-[(1R)-6-(9-pyridin-4-yl-2,9-diazaspiro[5.5]undecane-2-carbonyl)-2,3-dihydro-1H-inden-1-yl]-benzamide], the inhibition at 10 µM in test [1] was found to be 98%; in test [2], 102%.

`Cc1cc2c(cc1C(=O)N1CCC3(CCN(c4ccncc4)CC3)C1)[C@H](NC(=O)c1ccccc1Cl)CC2` [Example H-93, 2-Chloro-N-[(1R)-5-methyl-6-(8-pyridin-4-yl-3,8-diazaspiro[4.5]decane-3-carbonyl)-2,3-dihydro-1H-inden-1-yl]-benzamide]: the figures for the inhibition at 10 µM in test [1] and in test [2] were 100% and 103%, respectively.

Regarding `Cc1cccc(Cl)c1S(=O)(=O)NC1CC(C)(C)c2ccc(C(=O)N3CCC4(CC3)CCN(c3ccncc3)CC4)cc21` (stereo not drawn) [IND_CC-259, 2-Chloro-N-[3,3-dimethyl-6-(3-pyridin-4-yl-3,9-diazaspiro[5.5]undecane-9-carbonyl)-1,2-dihydro-inden-1-yl]-6-methyl-benzenesulfonic acid amide], the inhibition at 10 µM stood at 99% in test [1] and 100% in test [2].

As to `O=C(c1ccc2c(c1)[C@H](N(CC(F)(F)F)C(=O)c1ccccc1Cl)CC2)N1CCC2(CCN(c3ccncc3)CC2)C1` [Example H-137, 2-Chloro-N-[(1R)-6-(8-pyridin-4-yl-3,8-diazaspiro[4.5]decane-3-carbonyl)-2,3-dihydro-1H-inden-1-yl]-N-(2,2,2-trifluoro-ethyl)-benzamide], the inhibition at 10 µM in test [1] was determined as 99%; in test [2], 103%.

In the case of `O=C(c1ccc2c(c1)C(N(C(=O)c1ccccc1Cl)C1CC1)CC2)N1CCC2(CC1)CCN(c1ccncc1)C2` (stereo not drawn) [Ind_CC-119, 2-chloro-N-cyclopropyl-N-[6-(2-pyridin-4-yl-2,8-diazaspiro[4.5]decane-8-carbonyl)-2,3-dihydro-1H-inden-1-yl]-benzamide], the results for the inhibition at 10 µM in test [1] and in test [2] were 99% and 104%, respectively.

With `O=C(N[C@@H]1CCOc2cc(F)c(C(=O)N3CCC4(CC3)CCN(c3ccncc3)CC4)cc21)c1ccccc1Cl` [Example H-92, 2-Chloro-N-[(4R)-7-fluoro-6-(9-pyridin-4-yl-3,9-diazaspiro[5.5]undecane-3-carbonyl)-3,4-dihydro-2H-chromen-4-yl]-benzamide], the inhibition at 10 µM was 96% in test [1] and 104% in test [2].

On to `Cc1cc(N2CCC3(CCN(C(=O)c4ccc5c(c4)[C@H](NC(=O)c4ccccc4Cl)CC5)C3)CC2)ccn1` [Example H-112, 2-Chloro-N-[(1R)-6-[8-(2-methyl-pyridin-4-yl)-3,8-diazaspiro[4.5]decane-3-carbonyl]-2,3-dihydro-1H-inden-1-yl]-benzamide], for which the inhibition at 10 µM in test [1] was 100%; in test [2], 102%.

Turning to `O=C(c1ccc2c(c1)C(NS(=O)(=O)c1ccccc1Cl)CC2)N1CCC2(CC1)CCN(c1ccncc1)C2` (stereo not drawn) [Ind_CC-049, 2-chloro-N-[6-(2-pyridin-4-yl-2,8-diazaspiro[4.5]decane-8-carbonyl)-2,3-dihydro-1H-inden-1-yl]-benzenesulfonic acid amide], the inhibition at 10 µM came out at 99% in test [1] and 101% in test [2].

On to `CC1(C)CC(NC(=O)c2cccc(Cl)c2Cl)c2cc(C(=O)N3CCC4(CC3)CCN(c3ccncc3)CC4)ccc21` (stereo not drawn) [IND_CC-283, 2,3-Dichloro-N-[3,3-dimethyl-6-(3-pyridin-4-yl-3,9-diazaspiro[5.5]undecane-9-carbonyl)-1,2-dihydro-inden-1-yl]-benzamide], for which the figures for the inhibition at 10 µM in test [1] and in test [2] were 96% and 107%, respectively.

As for `O=C(c1ccc2c(c1)CC[C@H]2N1Cc2cccc(Cl)c2C1=O)N1CCC2(CC1)CCN(c1ccncc1)CC2` [Example H-159, 7-Chloro-2-[(1R)-5-(9-pyridin-4-yl-3,9-diazaspiro[5.5]undecane-3-carobnyl)-2,3-dihydro-1H-inden-1-yl]-2,3-dihydro-isoindol-1-one], the inhibition at 10 µM in test [1] amounted to 98%; in test [2], 103%.

With `CN(C(=O)c1ccccc1Cl)C1CCc2ccc(C(=O)N3CCC4(CC3)CCN(c3ccc(F)cc3)CC4)cc21` (stereo not drawn) [Ind_CC-108, 2-chloro-N-[6-[9-(4-fluorophenyl)-3,9-diazaspiro[5.5]undecane-3-carbonyl]-2,3-dihydro-1H-inden-1-yl]-N-methyl-benzamide], the inhibition at 10 µM in test [1] was found to be 23%; in test [2] it was 51%.

Regarding `CC1(C)CC(NC(=O)c2ccc(Cl)cc2Cl)c2cc(C(=O)N3CCC4(CC3)CCN(c3ccncc3)CC4)ccc21` (stereo not drawn) [Ind_CC-059, 2,4-dichloro-N-[3,3-dimethyl-6-(9-pyridin-4-yl-3,9-diazaspiro[5.5]undecane-3-carbonyl)-1,2-dihydro-inden-1-yl]-benzamide], the inhibition at 10 µM in test [1] came out at 100%; in test [2], 102%.

As to `O=C(c1cccc2c1CC[C@@H]2NS(=O)(=O)c1ccccc1Cl)N1CCC2(CCN(c3ccncc3)CC2)C1` [Example H-165, 2-Chloro-N-[(1S)-4-(8-pyridin-4-yl-3,8-diazaspiro[4.5]decane-3-carbonyl)-2,3-dihydro-1H-inden-1-yl]-benzenesulfonic acid amide], the inhibition at 10 µM in test [1] and in test [2] was 44% in each case.

Turning to `O=C(NC1CCc2ccc(C(=O)N3CCC4(CCN(c5ccncc5)CC4)C3)cc21)c1ccc(F)cc1Cl` (stereo not drawn) [IND_CC-277, 2-Chloro-4-fluoro-N-[6-(8-pyridin-4-yl-2,8-diazaspiro[4.5]decane-2-carbonyl)-2,3-dihydro-1H-inden-1-yl]-benzamide], the values for the inhibition at 10 µM in test [1] and in test [2] were 100% and 105%, respectively.

For the compound `CN(C(=O)c1sccc1Cl)C1CCc2ccc(C(=O)N3CCC4(CC3)CCN(c3ccncc3)CC4)cc21` (stereo not drawn) [Ind_CC-016, 3-chloro-N-methyl-N-[6-(9-pyridin-4-yl-3,9-diazaspiro[5.5]undecane-3-carbonyl)-2,3-dihydro-1H-inden-1-yl]-thiophene-2-carboxylic acid amide], the inhibition at 10 µM in test [1] was determined as 100%; in test [2], 102%.

Take `O=C(N[C@@H]1CCc2ccc(C(=O)N3CCC4(CCN(c5ccncc5)CC4)C3)cc21)c1cnccc1C(F)(F)F` [Example H-115, N-[(1R)-6-(8-Pyridin-4-yl-3,8-diazaspiro[4.5]decane-3-carbonyl)-2,3-dihydro-1H-inden-1-yl]-4-(trifluoromethyl)-pyridine-3-carboxylic acid amide]: the inhibition at 10 µM in test [1] was determined as 100%; in test [2], 101%.

On to `O=C(N[C@@H]1CCc2ccc(C(=O)N3CCC4(CC3)CCN(c3ccncc3)CC4)cc21)c1c(Cl)cccc1Cl` [Example H-100, 2,6-Dichloro-N-[(1R)-6-(9-pyridin-4-yl-3,9-diazaspiro[5.5]undecane-3-carbonyl)-2,3-dihydro-1H-inden-1-yl]-benzamide], for which the inhibition at 10 µM in test [1] amounted to 100%; in test [2], 108%.
